We go through three compounds from patent US9284292B2, “Sialochimeric compounds” (THERAPICON S.R.L., priority 2009, dated 2016).

Data set [1] has as its system influenza virus A/H1N1 (A/New Caledonia/20/99). As to the kind of experiment: organism not typed. Type of data set: cell-based, influenza virus type A. The settings on record: MDCK, 72 h, read-out: EC50 vs A/H1N1.
The subject of data set [2] is influenza virus A/H1N1 (A/New Caledonia/20/1999). The class given is cell-based, influenza virus type A.
Data set [3] deals with influenza virus B (B/Parma/1/07). As to the kind of experiment: microbe, parasite or virus in culture. Type of data set: cell-based. The conditions noted are these: study I; for EC50: 72 h, MDCK cells, 50% plaque reduction vs control, 3 days.
The test system of data set [4] is influenza virus A/H3N2 (A/Panama/2007/99). As to the kind of experiment: organism not typed. The class given is cell-based, influenza virus type A. The settings on record: MDCK, 72 h, read-out: EC50 vs A/H3N2.
The conditions of data set [5]: in vivo; cited from earlier work.

With `CCOC(=O)C1=CC(OC(CC)CC)C(NC(C)=O)C(NC2(C(=O)O)CC(O)C(NC(C)=O)C(CNC34CC5CC(CC(C5)C3)C4)O2)C1` (stereo not drawn) [THE 08/01, Amantadine-C7-Neu5Ac—C16H28N2O4], the EC50 in data set [1] is 9.9 µM; in data set [2] it was 16 µM; in data set [3], 126 µM; in data set [4], 15.4 µM. Moreover, the “antiviral activity versus virus type A relative to virus type B” value in data set [3] (higher versus type A than type B) came out at 10 folds.
On to `CC(=O)NC1C(O)CC(NC(=N)NC2C=C(C(=O)O)OC(C(O)C(O)CO)C2NC(C)=O)(C(=O)O)OC1CNC12CC3CC(CC(C3)C1)C2` (stereo not drawn) [THE 10/01, Amantadine-C7-Neu5Ac—C12H20N4O7], for which the EC50 in data set [1] came to 11.7 µM; in data set [3] it was 99.5 µM; in data set [4] it was 18.3 µM.
Turning to `CC(=O)N[C@H]1[C@H]([C@H](O)[C@H](O)CO)OC(C(=O)O)=C[C@@H]1N=C(N)N` [zanamivir], the “absorbed by oral route” value in data set [5] is “about 2%”.
